In patent US20250170237A1, “MURAMYL DIPEPTIDES AND PROCESS FOR PREPARATION THEREOF” (priority 2022, published 2025):

System: OVA antigen
Assay: IgG titer with OVA antigen (indirect ELISA, immunized mice)
Type: in vivo, BALB/c mice
Protocol: Adjuvanticity of 15b was evaluated using antigens (OVA, HBsAg, DENV and JEV) in BALB/c mice model—From the immunized mice retro-orbital sampling or retro-orbital blood was collected on 14th and 28th day before sacrifice. Serum was separated by centrifugation at 12,500 rpm for 5 min. Transferred to a clean centrifuge tube and store at −80 until used.
The plates were coated with antigen in carbonate buffer. Plates were incubated at 4° C. overnight. They were then washed 3 times with PBS/Tween, and non-specific binding sites were blocked by adding 200 μl of blocking solution. Plates were incubated at room temperature for 1 h. Then 3 times wash is done, diluted standards and samples to desired concentrations in blocking solution were added to the plates. Incubate at 37° C. for 1 h or at 4° C. overnight. Plates were washed 3 times with PBS/Tween. Avidin-Horseradish Peroxidase (Av-HRP) was diluted and added. Incubated at room temperature for 30 min. Plates were washed 3 times with PBS/Tween. OPD Substrate was added and plates were incubated at room temperature (4-30 min) for colour development. The colour reaction was stopped by adding 50 μl of stop solution. Optical density (OD) was read at 492 nm.

Row | Molecule | IgG titer with OVA antigen (dose 1 μg) | IgG titer with OVA antigen (dose 10 μg) | IgG titer with OVA antigen (dose 100 μg) | IgG titer with OVA antigen (OVA 100 μg alone)
1 | CCCCCCCCCCCC(=O)OCCCCCCCC(=O)N[C@H]1C(O)O[C@H](CO)[C@@H](O)[C@@H]1O[C@H](C)C(=O)N[C@@H](C)C(=O)N[C@H](CCC(=O)O)C(N)=O (stereo partly drawn) [15g, (4R)-5-amino-4-((2S)-2-((2R)-2-(((3R,4R,5S,6R)-3-(8-(dodecanoyloxy)octanamido)-2,5-dihydroxy-6-(hydroxymethyl)tetrahydro-2H-pyran-4-yl)oxy)propanamido)propanamido)-5-oxopentanoic acid] | 25000-124000 | 10000-60000 | 5000-35000 | 
2 | C[C@H](NC(=O)[C@@H](C)O[C@H]1[C@H](O)[C@@H](CO)OC(O)[C@@H]1NC(=O)C1CCCCC1)C(=O)N[C@H](CCC(=O)O)C(N)=O (stereo partly drawn) [15e, (4R)-5-amino-4-((2S)-2-((2R)-2-(((3R,4R,5S,6R)-3-(cyclohexanecarboxamido)-2,5-dihydroxy-6-(hydroxymethyl)tetrahydro-2H-pyran-4-yl)oxy)propanamido)propanamido)-5-oxopentanoic acid] | 1600-12400 | 1600-41600 | 12800-96000 | 
3 | C[C@H](NC(=O)[C@@H](C)O[C@H]1[C@H](O)[C@@H](CO)OC(O)[C@@H]1NC(=O)C1CCCO1)C(=O)N[C@H](CCC(=O)O)C(N)=O (stereo partly drawn) [15i, (4R)-5-amino-4-((2S)-2-((2R)-2-(((3R,4R,5S,6R)-2,5-dihydroxy-6-(hydroxymethyl)-3-(tetrahydrofuran-2-carboxamido)tetrahydro-2H-pyran-4-yl)oxy)propanamido)propanamido)-5-oxopentanoic acid] | 4800-50000 | 102400-560000 | 119466-484000 | 
4 | CCCCCCCC(=O)OCCCCCCCC(=O)N[C@H]1C(O)O[C@H](CO)[C@@H](O)[C@@H]1O[C@H](C)C(=O)N[C@@H](C)C(=O)N[C@H](CCC(=O)O)C(N)=O (stereo partly drawn) [15 h, (4R)-5-amino-4-((2S)-2-((2R)-2-(((3R,4R,5S,6R)-2,5-dihydroxy-6-(hydroxymethyl)-3-(8-(octanoyloxy)octanamido)tetrahydro-2H-pyran-4-yl)oxy)propanamido)propanamido)-5-oxopentanoic acid] | 8750-64000 | 10000-50000 | 3750-25000 | 
5 | C[C@H](NC(=O)[C@@H](C)O[C@H]1[C@H](O)[C@@H](CO)OC(O)[C@@H]1NC(=O)C1CCC1)C(=O)N[C@H](CCC(=O)O)C(N)=O (stereo partly drawn) [15c, (4R)-5-amino-4-((2S)-2-((2R)-2-(((3R,4R,5S,6R)-3-(cyclobutanecarboxamido)-2,5-dihydroxy-6-(hydroxymethyl)tetrahydro-2H-pyran-4-yl)oxy)propanamido)propanamido)-5-oxopentanoic acid] | 25000-102400 | 10000-85000 | 5500-75000 | 
6 | C[C@H](NC(=O)[C@@H](C)O[C@H]1[C@H](O)[C@@H](CO)OC(O)[C@@H]1NC(=O)C1CCCC1)C(=O)N[C@H](CCC(=O)O)C(N)=O (stereo partly drawn) [15d, (4R)-5-amino-4-((2S)-2-((2R)-2-(((3R,4R,5S,6R)-3-(cyclopentanecarboxamido)-2,5-dihydroxy-6-(hydroxymethyl)tetrahydro-2H-pyran-4-yl)oxy)propanamido)propanamido)-5-oxopentanoic acid] | 3200-12400 | 3200-41600 | 6400-84000 | 
7 | OVA (protein, UniProt P01012 2-386, looked up) Ovalbumin: GSIGAASMEFCFDVFKELKVHHANENIFYCPIAIMSALAMVYLGAKDSTRTQINKVVRFDKLPGFGDSIEAQCGTSVNVHSSLRDILNQITKPNDVYSFSLASRLYAEERYPILPEYLQCVKELYRGGLEPINFQTAADQARELINSWVESQTNGIIRNVLQPSSVDSQTAMVLVNAIVFKGLWEKAFKDEDTQAMPFRVTEQESKPVQMMYQIGLFRVASMASEKMKILELPFASGTMSMLVLLPDEVSGLEQLESIINFEKLTEWTSSNVMEERKIKVYLPRMKMEEKYNLTSVLMAMGITDVFSSSANLSGISSAESLKISQAVHAAHAEINEAGREVVGSAEAGVDAASVSEEFRADHPFLFCIKHIATNAVLFFGRCVSP |  |  |  | 6400-12800
